Test results taken from article PMC12072072 (International Journal of Molecular Sciences, 2025).
Where two headings read alike, the source gives them in different places.

What was measured:
[1] = system: A-549 (human lung carcinoma); test: MTT assay, A-549 cells; assay type: cell-based; conditions: for IC50: Homo sapiens, A549, MTT assay, A-549 cells, value (standard deviation), read-out: IC50 [μM] (±s) A-549; for Selectivity Index (SI) A-549: IC50 of HDFs / IC50 of A-549
Procedure: (§1) Each medium was supplemented with 10% fetal bovine serum, 1% L-glutamine, and 1% penicillin/streptomycin solution. The cell lines were incubated at 37 °C in a humidified atmosphere containing 5% CO2. Cells were counted using the Fuchs–Rosenthal counting chamber (hemocytometer) with modifications.
(§2) The final product of this reaction gives violet formazan crystals. The number of live cells is proportional to the amount of formazan and is represented by the violet dye reagent. The details of the experiments are given, e.g., in [54].
(§3) Statistical analyses for the cytotoxic activity were carried out using the nonparametric Kruskal–Wallis H test for unpaired data and ANOVA Friedman two-way analysis of variance test for paired data. Statistical significance was tested using Dunn’s post-hoc test. The IC50 values compared to the control IC50 were calculated using GraphPad Prism v. 10.1.1. software.

[2] = system: PC-3 (human prostate carcinoma); test: MTT assay, PC-3 cells; assay type: cell-based; conditions: for IC50: PC-3 cells, value (standard deviation), read-out: IC50 [μM] (±s) PC-3; for Selectivity Index (SI) PC-3: IC50 of HDFs / IC50 of PC-3
Procedure: as §1, §2, §3

A-549, PC-3, and SKOV-3 = test: MTT assay, statements over the cancer cell lines together; assay type: cell-based, human; conditions: for IC50: MTT assay, A-549, PC-3 and SKOV-3 together, summary of Table 3, read-out: IC50 stated over the cancer cell lines together; for Selectivity Index stated over the tested cell lines together: IC50 of HDFs / IC50 of cell line, text summary of Table 4
Procedure: as §1, §2

Solubility (remark) = assay type: physicochemical; conditions: remark among limitations, solvent not stated
[3] = system: CHO (Chinese hamster ovary); test: MTT assay, CHO cells; assay type: cell-based; conditions: for IC50: Cricetulus griseus, CHO, MTT assay, CHO cells, value (standard deviation), read-out: IC50 [μM] (±s) CHO; for Selectivity Index (SI) CHO: IC50 of HDFs / IC50 of CHO
Procedure: as §1, §2, §3

[4] = system: HDFs (human dermal fibroblasts); test: MTT assay, HDFs (normal cells); assay type: cell-based; conditions: Fibroblast, value (standard deviation), read-out: IC50 [μM] (±s) HDFs
Procedure: as §1, §2, §3

[5] = system: SKOV-3 (human ovarian carcinoma); test: MTT assay, SKOV-3 cells; assay type: cell-based; conditions: for IC50: SKOV-3 cells, value (standard deviation), read-out: IC50 [μM] (±s) SKOV-3; for Selectivity Index (SI) SKOV-3: IC50 of HDFs / IC50 of SKOV-3
Procedure: as §1, §2, §3

[6] = system: PC-3 (human prostate carcinoma); test: Cell Death Detection ELISA Plus, PC-3; assay type: cell-based; conditions: DNA fragmentation ELISA, sample vs negative control; tested at 0.1, 1.0 and 10.0 µg/mL, concentration of the value not stated
Procedure: (§4) The induction of apoptosis by tested compounds was determined with Cell Death Detection ELISA Plus from Roche Diagnostics GmbH (Mannheim, Germany).
(§5) The Cell Death Detection ELISA PLUS photometric enzyme immunoassay is used to quantitatively in vitro determination of cytoplasmic histone-associated DNA fragments (mono- and oligonucleosomes) after induced cell death. The kit contains a stop solution that allows users to terminate the substrate reaction and run the assay under defined conditions, making it suitable for high-throughput applications. This kit can be used for the relative quantification of histone-complexed DNA fragments (mono- and oligonucleosomes) out of the cytoplasm of cells after the induction of apoptosis or when released from necrotic cells. […] The antibodies used in the assay are not species-specific; therefore, the kit may be used to assay cells from various species. The details of the experiments are given in [74]. As an internal reference compound (cytostatic drug), camptothecin (topoisomerase I-inhibitor) was used in this study to induce apoptosis. The negative control is the sample without camptothecin treatment. […] Cells were counted using a Fuchs–Rosenthal counting chamber (hemocytometer) with modifications. The apoptotic index was calculated based on the enrichment of mono- and oligonucleosomes according to the following equation:apoptotic index = [{A405(sample) − A490(sample)}/{A405(negative control) − A490(negative control)}]

[7] = system: SKOV-3 (human ovarian carcinoma); test: Cell Death Detection ELISA Plus, SKOV-3; assay type: cell-based; conditions: DNA fragmentation ELISA, sample vs negative control; tested at 0.1, 1.0 and 10.0 µg/mL, concentration of the value not stated
Procedure: as §4, §5

[8] = Homo sapiens, SK-OV-3, MTT assay

SMILES	IC50 [1] [µM]	Selectivity Index (SI) A-549 [1]	IC50 ([2]; Homo sapiens, PC-3, MTT assay) [µM]	Selectivity Index (SI) PC-3 [2]	IC50 (A-549, PC-3, and SKOV-3; Homo sapiens) [µM]	solubility (Solubility (remark))	IC50 [3] [µM]	IC50 [4] [µM]	IC50 [5, 8] [µM]	Selectivity Index (SI) SKOV-3 [5]	Selectivity Index (SI) CHO [3]	Selectivity Index stated over the tested cell lines together (A-549, PC-3, and SKOV-3)	Apoptotic Index (AI) PC-3 [6]	Apoptotic Index (AI) SKOV-3 [7]	IC50 (A-549, PC-3, and SKOV-3) [µM]	IC50 ([2]; MTT assay) [µM]	IC50 ([5]; MTT assay) [µM]
CC1(C)CC[C@@]23CC[C@]4(C)[C@@](OC2=O)(C3C1)[C@@H](Br)CC1[C@@]2(C)CCC(=O)NC(C)(C)C2CC[C@]14C (stereo partly drawn) [Compound 13, 12α-bromo-3-oxo-3a-aza-A-homoolean-28-oic acid 28β→13β-olide]	89.3	1.00	73.1	1.22	11 to 90	poor solubility	> 100	89.4	75.8	1.18	–	–	–	–	–	–	–
CC1(C)CC[C@@]23CC[C@]4(C)[C@@](OC2=O)(C3C1)[C@@H](Br)CC1[C@@]2(C)CCC(=NO)C(C)(C)C2CC[C@]14C (stereo partly drawn) [Compound 11]	34.6	0.83	25.1	1.15	22 to 35	–	55.4	28.9	21.8	1.33	0.52	–	–	–	–	–	–
CC1(C)CC[C@@]23CC[C@@]4(C)[C@]5(C)CCC6C(C)(C)[C@@H](O)CC[C@]6(C)C5CC(=O)[C@]4(OC2=O)C3C1 (stereo partly drawn) [Compound 5, 3β-Hydroxy-12-oxoolean-28-oic acid 28β→13β-olide]	38	1.36	31	1.67	24 to 38	–	38.2	51.8	37	1.40	1.35	–	–	–	–	–	–
CC1(C)CC[C@@]23CC[C@]4(C)[C@@](OC2=O)(C3C1)[C@@H](Br)CC1[C@@]2(C)CC[C@H](O)C(C)(C)C2CC[C@]14C (stereo partly drawn) [Compound 9, 12α-Bromo-3β-hydroxyolean-28-oic acid 28β→13β-olide]	29.9	1.71	26.1	1.95	11 to 90	–	42	51	26.4	1.93	1.21	~2	–	–	–	–	–
CC1(C)CC[C@@]23CC[C@@]4(C)[C@]5(C)CCC6C(C)(C)[C@@H](O)CC[C@]6(C)C5C/C(=N\O)[C@]4(OC2=O)C3C1 (stereo partly drawn) [Compound 8, 3β-Hydroxy-12-hydroxyiminoolean-28-oic acid 28β→13β-olide]	> 100	–	> 100	–	> 100	poor solubility	> 100	> 100	> 100	–	–	–	–	–	–	–	–
CC1(C)CC[C@@]23CC[C@]4(C)[C@@](OC2=O)(C3C1)[C@@H](Br)CC1[C@@]2(C)CCC(=O)C(C)(C)C2CC[C@]14C (stereo partly drawn) [Compound 10, 12α-Bromo-3-oxoolean-28-oic acid 28β→13β-olide]	15.6	2.51	12.9	3.02	11 to 90	–	21.4	39.1	12.1	3.24	1.83	exceeds 2	5.82 (0.04)	5.05 (0.03)	12 to 15	–	–
C=C(C)C1CC[C@]2(C)C(C[C@H](Br)[C@]34OC(=O)[C@@]5(CCC(C)(C)CC53)CC[C@]42C)[C@@]1(C)CCC#N (stereo partly drawn) [Compound 12, 12α-Bromo-3-nitrilo-3,4-secoolean-4(23)-ene-28-oic acid 28β→13β-olide]	7.88	1.15	6.27	1.46	–	–	9.23	9.13	6.22	1.47	0.99	–	5.43 (0.05)	5.11 (0.01)	< 10	–	–
CC(=O)OC1CCC2(C)C(CCC3(C)C2CC(=NO)C24OC(=O)C5(CCC(C)(C)CC52)CCC34C)C1(C)C (stereo not drawn) [Compound 6, 3β-Acetoxy-12-hydroxyiminoolean-28-oic acid 28β→13β-olide]	1.27	3.08	1.88	2.08	1 to 9	–	–	3.91	1.73	2.26	0.71	exceeds 2	7.28 (0.02)	7.22 (0.06)	–	–	–
CC1(C)CC[C@@]23CC[C@@]4(C)[C@]5(C)CCC6C(C)(C)C(=O)CC[C@]6(C)C5CC(=O)[C@]4(OC2=O)C3C1 (stereo partly drawn) [Compound 7, 3,12-Dioxoolean-28-oic acid 28β→13β-olide]	66.1	–	> 100	–	> 100	poor solubility	> 100	> 100	> 100	–	–	–	–	–	–	–	–
CC(=O)O[C@H]1CC[C@@]2(C)C(CC[C@]3(C)C2CC(=O)[C@]24OC(=O)[C@@]5(CCC(C)(C)CC52)CC[C@@]34C)C1(C)C (stereo partly drawn) [Compound 4, 3β-Acetoxy-12-oxoolean-28-oic acid 28β→13β-olide]	24.7	1.70	25.9	1.62	24 to 38	–	52.7	42	22.8	1.84	0.79	~2	–	–	–	–	–
CC1(C)CC[C@@]23CC[C@]4(C)[C@@](OC2=O)(C3C1)[C@@H](Br)CC1[C@@]2(C)CCC(=S)NC(C)(C)C2CC[C@]14C (stereo partly drawn) [Compound 14, 12α-bromo-3-thioxo-3a-aza-A-homoolean-28-oic acid 28β→13β-olide]	66.2	1.27	65.9	1.28	11 to 90	–	87	84.1	68.3	1.23	0.97	–	–	–	–	–	–
CC(=O)O[C@H]1CC[C@@]2(C)C(CC[C@]3(C)C2C[C@H](O)[C@]24OC(=O)[C@@]5(CCC(C)(C)CC52)CC[C@]43C)C1(C)C (stereo partly drawn) [Compound 2, 3β-Acetoxy-12α-hydroxyolean-28-oic acid 28β→13β-olide]	4.68	1.60	1.88	2.30	1 to 9	–	4.19	7.51	1.73	2.54	1.79	exceeds 2	4.76 (0.02)	4.71 (0.11)	–	3.26	2.96
